Measurements as given in patent EP0392666A2, “Anti-HIV compositions” (JOHNSON MATTHEY PUBLIC LIMITED COMPANY, priority 1989, dated 1990).
≈ marks a conversion by molar mass, not a printed value. Read-outs that look alike come from different tables or passages of the source.

Experiments:
HIV-1 (HTLV-IIIB) = assay: microbe, parasite or virus in culture; format: cell-based; conditions: for EC50: Human immunodeficiency virus 1, MT4, 120 h, read-out: ED₅₀; for SI: Selectivity Index, ratio of CD₅₀ to ED₅₀, HIV-1, 7200 min
Method: (§1) The compounds of the invention were tested in a screen by the MTT method (J. Virol. Methods 120: 309-321 [1988]). MT-4 cells (2.5 x 10⁴ /well) were infected with HIV-1 (HTLV-IIIB) or HIV-2 (LAV-2 ROD) at a concentration of 100 CCID₅₀ and incubated in the presence of various concentrations of the test compounds, which were added immediately after infection with the virus. After 5 days culture at 37°C in a CO₂ incubator, the number of viable cells was assessed by the MTT (tetrazolium) method. […] The potential therapeutic usefulness was assessed by calculating a Selectivity Index (SI) corresponding to the ratio of CD₅₀ to ED₅₀. A control test was performed using the known anti-HIV treatment AZT.

HIV-2 (LAV-2 ROD) = assay: MTT method anti-HIV screen in MT-4 cells infected with HIV-2; format: cell-based; conditions: for EC50: Human immunodeficiency virus 2, MT4, 120 h, read-out: ED₅₀; for EC50 / ED₅₀: antiviral activity, MT-4 cells infected with HIV-2 (LAV-2 ROD) at 100 CCID₅₀, 5 days; for SI: Selectivity Index, ratio of CD₅₀ to ED₅₀, HIV-2, 7200 min
Method: as §1

[1] = Cytotoxicity by MTT method in MT-4 cells; format: cell-based, human; conditions: human, mt-4 cells, read-out: CD₅₀
Method: as §1

MT-4 cells = assay: Cytotoxicity by MTT method in MT-4 cells; format: cell-based, human
Method: as §1

[2] = antiviral activity, MT-4 cells infected with HIV-1 (HTLV-IIIB) at 100 CCID₅₀, 5 days

Compound | EC50 (HIV-1 (HTLV-IIIB); [2]) | SI (HIV-1 (HTLV-IIIB)) | EC50 (HIV-2 (LAV-2 ROD)) | SI (HIV-2 (LAV-2 ROD)) | CC50 at 120 h ([1]; HIV-1, 5 days culture at 37°C) | CC50 at 120 h ([1]; HIV-2, 5 days culture at 37°C) | ED₅₀ (HIV-1 (HTLV-IIIB); [2]) | ED₅₀ (HIV-2 (LAV-2 ROD)) | CD₅₀ (MT-4 cells; HIV-1, 5 days culture at 37°C) | CD₅₀ (MT-4 cells; HIV-2, 5 days culture at 37°C) | EC50 (HIV-1 (HTLV-IIIB))
C1CNCCCNCCNCCCNC1 [B, 1,4,8,12-tetrazacyclopentadecane] | 30.3 µg/mL (≈ 141 µM) | 15 | 40.4 µg/mL (≈ 188 µM) | 12 | 460 µg/mL (≈ 2140 µM) | 487 µg/mL (≈ 2270 µM) |  |  |  |  | 
Zn complex of 1,4,8,12-tetrazacyclopentadecane (Cl⁻) [G] |  |  |  |  |  |  | 6.96 µg/mL | >1000.0 µg/mL | 194.2 µg/mL | 218.3 µg/mL | 
c-[Rh cyclam (NO₂)₂]Cl [reference compound] |  |  |  |  |  |  | >250 µg/mL |  |  |  | 
C1CCNCCCNCCCNCCCNC1 [E, 1,5,9,14-tetrazacycloheptadecane] | 1.3 µg/mL (≈ 5.36 µM) | 3 | > 8 µg/mL | <1 | 3.35 µg/mL (≈ 13.8 µM) | 5.06 µg/mL (≈ 20.9 µM) |  |  |  |  | 
[Cu cyclam]Cl₂ [X, reference compound] |  |  |  |  |  |  | >250 µg/mL |  |  |  | 
Cc1cn([C@H]2C[C@H](N=[N+]=[N-])[C@@H](CO)O2)c(=O)[nH]c1=O [AZT, reference compound] |  | >125 |  |  | > 1 µg/mL |  |  |  |  |  | < 0.008 µg/mL
C1CNCCCNCCCNCCCNC1 [D, 1,5,9,13-tetrazacyclohexadecane] | 0.3 µg/mL (≈ 1.31 µM) | 37 | > 40 µg/mL | <1 | 11.2 µg/mL (≈ 49 µM) | 20.5 µg/mL (≈ 89.8 µM) |  |  |  |  | 
CC1CC(C)(C)NCCNC(C)CC(C)(C)NCCN1 (stereo not shown) [I, 5,5,7,12,12,14-hexamethyl-cyclam] | 197 µg/mL (≈ 692 µM) | 2 | > 1000 µg/mL | <1 | 432 µg/mL (≈ 1520 µM) | 419 µg/mL (≈ 1470 µM) |  |  |  |  | 
Zn complex of 1,5,9,13-tetrazacyclohexaadecane (Cl⁻) [Compound H] |  |  |  |  |  |  | 10.6 µg/mL | >100.0 µg/mL | 46.9 µg/mL | 46.9 µg/mL | 
C1CCNCCCNCCNCCCNC1 [C, 1,4,8,13-tetrazacyclohexadecane. 4HCl] | 18.8 µg/mL | 18 | > 500 µg/mL | <1 | 334 µg/mL | 341 µg/mL |  |  |  |  | 
C1CNCCNCCNCCNCCN1 [F, 1,4,7,10,13-pentazacyclopentadecane] | > 8 µg/mL | <1 | > 8 µg/mL | <1 | 3.36 µg/mL (≈ 15.6 µM) | 6.03 µg/mL (≈ 28 µM) |  |  |  |  | 
